# B1: Oncostatin-M: positive control that induces Stat3 phosphorylation in osteoblasts (protein, UniProt P13725 26-221, looked up)
# Oncostatin-M: AAIGSCSKEYRVLLGQLQKQTDLMQDTSRLLDPYIRIQGLDVPKLREHCRERPGAFPSEETLRGLGRRGFLQTLNATLGCVLHRLADLEQRLPKAQDLERSGLNIEDLEKLQMARPNILGLRNNIYCMAQLLDNSDTAEPTKAGRGASQPPTPTPASDAFQRKLEGCRFLHGYHRFMHSVGRVFSKWGESPNRSRR
# Assays:
# bone marrow adipocytes = details: lumbar spine; cited from earlier work
# ob/ob mice [1] = test: ICV infusion of MTII in ob/ob mice; format: in vivo, mouse; details: ICV 125 ng/hr, 28 days
# Description: (§1) Wildtype (C57BL/6J) and mutant (C57BL/6J A^y/a, C57BL/6J ob/ob) mice were obtained from the Jackson laboratory and adrenal medullectomized mice from Harlan Tecklad laboratory. Dbh−/− mice were rescued as previously described (Thomas et al., 1998, Neurochem 70:2468-2476). Isoproterenol (Sigma) was injected intraperitoneally (ip) once daily for 6 weeks at 30 mg/kg (wt) or 3 mg/kg (ob/ob). Propranolol (Sigma) was added to the drinking water at a concentration of 0.5 g/l. For ICV infusion, a 28-gauge cannula (Brain infusion kit II, Alza) was implanted into the third ventricle as previously described infusing human leptin (Sigma) at 8 ng/hr or MT-II at 125 ng/hr (Phoenix Pharmaceuticals) for 28 days (see, e.g., Ducy et al., 2000, Cell 100: 197-207). The cannula was connected to an osmotic pump (Alza) placed in the dorsal subcutaneous space of the animal. For parabiosis longitudinal incisions were made in the skin and in the peritoneal cavity along one side on each mouse. Edges of the incisions were connected by suture to induce coelioanastomosis. Cross-circulation was quantified by injecting 1 ml/kg 0.25% Evans blue into the tail vein of one mouse of the parabiosed pair. After 30 min. blood was collected from both mice by retroorbital bleeding and the blood exchange rate was calculated according to standard techniques (see, e.g., Harris & Martin, 1984, Am J Physiol 247:R380-386). […]
# C57BL/6J pups = test: MSG lesioning of the hypothalamus in mice; format: in vivo, mouse
# Description: as §1
# C57BL/6J mice = test: GTG lesioning of the hypothalamus in wt mice; format: in vivo, mouse
# Description: Wildtype (C57BL/6J) and mutant (C57BL/6J A^y/a, C57BL/6J ob/ob) mice were obtained from the Jackson laboratory and adrenal medullectomized mice from Harlan Tecklad laboratory. Dbh−/− mice were rescued as previously described (Thomas et al., 1998, Neurochem 70:2468-2476). Isoproterenol (Sigma) was injected intraperitoneally (ip) once daily for 6 weeks at 30 mg/kg (wt) or 3 mg/kg (ob/ob). Propranolol (Sigma) was added to the drinking water at a concentration of 0.5 g/l. For ICV infusion, a 28-gauge cannula (Brain infusion kit II, Alza) was implanted into the third ventricle as previously described infusing human leptin (Sigma) at 8 ng/hr or MT-II at 125 ng/hr (Phoenix Pharmaceuticals) for 28 days (see, e.g., Ducy et al., 2000, Cell 100: 197-207). The cannula was connected to an osmotic pump (Alza) placed in the dorsal subcutaneous space of the animal. For parabiosis longitudinal incisions were made in the skin and in the peritoneal cavity along one side on each mouse. Edges of the incisions were connected by suture to induce coelioanastomosis. Cross-circulation was quantified by injecting 1 ml/kg 0.25% Evans blue into the tail vein of one mouse of the parabiosed pair. After 30 min. blood was collected from both mice by retroorbital bleeding and the blood exchange rate was calculated according to standard techniques (see, e.g., Harris & Martin, 1984, Am J Physiol 247:R380-386). […] Two weeks after parabiosis a pump delivering leptin ICV in one animal of each pair was implanted. For GTG lesioning, 4-week-old C57BL/6J mice were given a single ip injection of either PBS or GTG (0.5 mg/g). For MSG lesioning, 2 day-old C57BL/6J pups were injected daily subcutaneously with either PBS or MSG (2 mg/g) for 10 days.
# Next, 4-week-old wt mice were treated with gold thioglucose (GTG), a compound that destroys neurons of the VMH and of the more dorso-lateral part of the ARC although it affects other neurons (see, e.g., Debons et al., 1962, Am J Physiol 4:743-750). […] As with ob/ob mice, this HBM was due to an increase in bone formation defined by an increase in the bone formation rate (FIG. 9E). […] These findings established that neurons sensitive to GTG are involved in the control of bone mass.
# wild-type (wt) mice = test: 17 β-estradiol treatment of wild-type mice; format: in vivo, mouse
# ob/ob mice [2] = test: 17 β-estradiol or testosterone treatment of hypogonadic ob/ob mice; format: in vivo, mouse
# Excerpt: Nevertheless, to address this point more thoroughly the hypogonadism of the ob/ob mice was exploited. Hypogonadism normally leads to an increase in osteoclasts number and in bone resorptive activity. […] On the other hand, if the osteoclasts of the ob/ob mice were not functioning properly, correcting their hypogonadism should not affect the severity of their high bone mass phenotype. To determine which of these two possibilities was correct, 17 β-estradiol or placebo pellets (Innovative Research of America) were implanted subcutaneously in 2-month-old female ob/ob mice to maintain a serum concentration of 250 pg/mL. These animals were analyzed after a 3-month treatment period.
# Finally, the function of the osteoclasts of ob/ob and db/db mice was studied in vitro in an assay using hematopoietic progenitor cells from wild type, ob/ob, or db/db mice and growth factors known to induce the differentiation of these cells into functional osteoclasts. Mouse osteoclasts were generated in vitro according to protocols previously reported (Simonet et al., 1997, Cell 89, 309-319; Quinn et al., 1998, Endocrinology 139, 4424-4427). […] Medium was changed every other day. After 6 days of culture, cells were fixed in 3.7% formalin. Osteoclasts formed on plastic plates were stained for tartrate resistant acid phosphatase. Cells on dentin chips were removed by treatment with sodium hypochloride solution. Dentin chips were then stained with toluidine blue to visualize resorption pits.
# ovariectomized rat = details: cited from earlier work
# [3] = system: murine primary osteoblasts; test: cAMP production in murine primary osteoblasts; format: cell-based, mouse; details: confluent cultures, 100 μM IBMX, 5 min treatment; PTH as positive control
# Description: (§2) Primary osteoblast cultures were established as previously described (see, e.g., Ducy et al., 2000, Cell 100: 197-207) and maintained in αMEM/0.1 mg/ml ascorbic acid supplemented with 10% FBS. SaOS-2 were grown in MEM/10% FBS. For cAMP assay confluent cultures were incubated with serum free medium containing 100 μM IBMX (3-isobutyl-1-methylxanthine, Sigma) for 8 minutes before PBS, PTH(1-34) (Bachem), isoproterenol, norepinephrine, phenylephrine (Sigma) or propranolol were added for 5 min. Intracellular cAMP concentration was measured by immunoassay (R&D Systems). For gene expression analyses, primary osteoblasts were treated for 72 hours with appropriate drugs in 0.1% FBS. Hormone serum levels were quantified using immunoassays kits from Peninsula Laboratories (Insulin) or Alpco Diagnostics (leptin). Deoxypyridinoline cross-links and Creatinine were measured in morning urines using the Quidel kits. a1(I) leptin bioactivity was verified by cotransfection of 293 cells expressing ObRb with a STAT3-responsive-luc reporter construct, pSVβgal plasmid and a1(I) leptin expression vector or mock. Twenty-four hours later luciferase and β-galactosidase activities were measured. Data represents ratios of luciferase/β-galactosidase activities, and values are mean of 6 independent transfection experiments.
# For a sympathetic regulation of bone formation to exist several requirements have to be fulfilled. The first one is that functional adrenergic receptors are present on osteoblasts. […] Immunohistochemical analysis of long bones from transgenic mice expressing LacZ under the control of the osteoblast-specific fragment of the a1(I) collagen promoter verified the presence of β2-adrenergic receptors on osteoblasts (FIG. 13B). No other adrenergic receptor subtype could be detected. […] Electron micrographs confirmed the presence of unmyelinated peripheral nerve axons coursing through the marrow adjacent to bone trabeculae and to osteoblasts (FIG. 13E). β-adrenergic receptors are G-coupled receptors that signal through the cAMP pathway (see, e.g., Benovic et al., 1988, Annu Rev Cell Biol 4:405-428). Thus, to assess the biologic relevance of the presence of β2-adrenergic receptors on osteoblasts, these cells were treated with isoproterenol, a β-adrenergic agonist, alone or in the presence of propranolol, a β-adrenergic receptor antagonist; with norepinephrine, the natural ligand of β-adrenergic receptors; with phenylephrine, an α-adrenergic agonist or with vehicle and measured cAMP production. As a positive control, parathyroid hormone (PTH) that binds to another G-coupled receptor present in osteoblasts was used (Gardella & Juppner, 2001, Trends Endocrinol Metab 12:210-217.). […] These effects were abolished by propranolol treatment. […]
# [4] = system: human SaOS-2 osteoblastic cells; test: cAMP production in human SaOS-2 osteoblastic cells; format: cell-based; details: SaOS-2, 100 μM IBMX, 5 min treatment
# Description: as §2
# For a sympathetic regulation of bone formation to exist several requirements have to be fulfilled. The first one is that functional adrenergic receptors are present on osteoblasts. […] No other adrenergic receptor subtype could be detected. […] Thus, to assess the biologic relevance of the presence of β2-adrenergic receptors on osteoblasts, these cells were treated with isoproterenol, a β-adrenergic agonist, alone or in the presence of propranolol, a β-adrenergic receptor antagonist; with norepinephrine, the natural ligand of β-adrenergic receptors; with phenylephrine, an α-adrenergic agonist or with vehicle and measured cAMP production. […]
# [5] = system: primary osteoblasts isolated from wild-type mice; test: Leptin signaling in primary osteoblast cultures (Stat3 phosphorylation, immediate early genes, matrix synthesis and mineralization); format: cell-based, mouse
# Description: Expression of leptin in osteoblasts was studied in subconfluent primary osteoblast cultures from wild-type mice which were maintained for 4 days in 10% FBS mineralization medium and then subsequently switched to 0.5% for 2 days and replaced daily. Medium was replaced 2 hours before a 20 min treatment with 80 ng/mL leptin (Sigma) or 40 ng/mL Oncostatin M (R&D Diagnostics) or vehicle. RNA extractions were performed using Triazol (Gibco). Northern blots were performed with 15 μg of total RNA according to methods well known in the art.
# To determine whether or not leptin could transduce its signal in osteoblasts, serum-starved primary osteoblasts isolated from wild-type mice were treated with leptin. Primary osteoblast cultures from calvaria of newborn wild-type or db/db mice were established as previously described (Ducy et al., 1999, Genes Dev 13, 1025-1036) and maintained in mineralization medium (αMEMI 0.1 mg/mL ascorbic acid; 5 mM […]) supplemented with 10% […]. Cultures of mutant cells were maintained in this medium for 15 days before analysis. Cultures derived from wild-type mice were maintained for 10 days in this medium then the percentage of serum was reduced to 0.5% and the medium supplemented with 1.2 μg/mL leptin (Sigma) or vehicle for 5 days.
# The phosphorylation of Stat3, a downstream effector of leptin signaling in its target cells (Tartaglia et al., 1995, Cell 83, 1263-1271; Baumann et al., 1996, Proc Natl Acad Sci USA 93, 8374-8378; Ghilardi et al., 1996, Proc Natl Acad Sci USA 93, 6231-6235; Vaisse et al., 1996, Nat Genet 14, 95-97), was monitored, in addition to the expression of two immediate early genes whose transcription is increased following leptin treatment of target cells (Elmquist et al., 1997, Endocrinology 138, 839-842). As a positive control oncostatin-M that induces Stat3 phosphorylation and activates the expression of the same two immediate early genes in osteoblasts (Levy et al., 1996, Endocrinology 137, 1159-1165) was utilized. Western blot analysis was performed to determine Stat3 phosphorylation as follows. Cells were lysed, protein extracts were separated on a 7.5% SDS-PAGE and blotted on nitrocellulose (Biorad) for immunoblotting assay by methods well known in the art. Analysis of Stat3 phosphorylation was performed using the PhosphoPlus Stat3 (Tyr7O5) Antibody kit (New England Biolabs) according to the manufacturer's instructions.
# Finally, the effect of a long-term leptin treatment of primary osteoblast cultures from wild-type mice on extracellular matrix synthesis and bone matrix mineralization was determined. The presence of a collagen-rich extracellular matrix and of mineralization nodules was assessed by whole-mount staining of the cultures by the van Gieson and von Kossa reagent, respectively. No difference was observed when assessing collagen synthesis or mineralization nodule formation between control and leptin-treated cultures (FIG. 5E).
# [6] = estradiol-treated ob/ob mice, end of treatment period
# [7] = female ob/ob mice, 3-month treatment
molecule,measurement,setting,value
COC(=O)COc1ccc(CC(C)NCC(O)c2cccc(Cl)c2)cc1 (stereo not drawn) [BRL 35135],sizes of bone marrow adipocytes,bone marrow adipocytes,reduce
MTII,body weight,ob/ob mice [1],significantly decreased
same,bone mass,ob/ob mice [1],did not affect
"N[C@@H](CCC(=O)O)C(=O)[O-].[Na+] [MSG, monosodium glutamate]",ARC structures (neurons synthesizing NPY),"C57BL/6J pups; newborn pups, 2 mg/g subcutaneously daily for 10 days",markedly affected
same,"bone mass (bone volume, histology)",C57BL/6J pups; twelve week-old MSG-treated mice,normal
"OC[C@@H](O)[C@@H](O)[C@H](O)[C@@H](O)C=S.[Au] [GTG, gold thioglucose]",VMH neurons expressing SF1 (immunohistochemistry),"C57BL/6J mice; 4-week-old wt mice, single ip injection 0.5 mg/g",marked perturbation
same,bone formation rate,C57BL/6J mice; 12 week-old GTG-treated mice,increase
same,bone mass (bone histologic analysis),C57BL/6J mice; 12 week-old GTG-treated mice,HBM whose severity was nearly identical to that of ob/ob mice
same,urinary elimination of deoxypyridinoline (dpd) and osteoclast numbers,C57BL/6J mice; GTG-treated mice,normal
C[C@]12CC[C@@H]3c4ccc(O)cc4CC[C@H]3[C@@H]1CC[C@@H]2O [17 β-estradiol],bone trabeculae (histological analysis of vertebrae),wild-type (wt) mice,significant increase
same,"hypogonadism, as judged by the aspect of uteri and levels of estradiol in blood","ob/ob mice [2]; 2-month-old female ob/ob mice, subcutaneous pellets, serum 250 pg/mL, 3-month treatment",corrected their hypogonadism
same,increase in bone volume compared to estradiol-treated wild-type mice,ob/ob mice [2]; [6],50%
same,increase in bone volume compared to untreated wild-type mice,ob/ob mice [2]; [6],3 fold
same,high bone mass phenotype compared to placebo treated ob/ob mice,ob/ob mice [2]; [7],further increase
same,osteoclast number,ob/ob mice [2]; [7],normalization
CC(C)(C)NCC(O)c1ccc(O)c(CO)c1 (stereo not drawn) [salbutamol],effects in bone,ovariectomized rat,Anabolic effects
NC[C@H](O)c1ccc(O)c(O)c1 [norepinephrine],cAMP production,[3],increased
same,cAMP production,[4],induced
CNC[C@H](O)c1cccc(O)c1 [phenylephrine],cAMP production,[3],not
B1,expression of Tis11 and c-fos (Northern analysis),"[5]; primary osteoblasts, 20 min treatment",quickly and transiently activated
same,Stat3 phosphorylation (Western blot),"[5]; serum-starved primary osteoblasts, 20 min, leptin 80 ng/mL, Oncostatin M 40 ng/mL",did induce

# From US20060165683A1, “Methods and compositions for control of bone formation via modulation of sympathetic tone” (priority 2001, published 2006)
